Read-outs that look alike come from different tables or passages of the source.
What was measured:
[1] = Stability of the isolated complexes in aqueous solution at pH 7.4 (UV-vis over 72 h); type: physicochemical
Procedure: The stability of the isolated RhCp* and RuCym complexes in aqueous solution at pH 7.4 was assayed via recording the UV-vis spectra over 72 h (Figure S18). […] Then, the behaviour of the complexes was monitored between pH 2 and 12 by ^1H NMR spectroscopy (see representative spectra of the RuCym complex in Figure 8) in chloride-free medium, as this halide ion can act as a competitor ligand. There was no indication for the dissociation of the complexes (i.e., liberation of unbound ligand or metal precursor) in the studied pH range or even at pH 1 (Figure S19), showing their fairly high stability in solution.
An Agilent Cary 8454 diode array spectrophotometer (Santa Clara, CA, USA) was used to obtain UV-vis spectra in the wavelength range 200–1000 nm, while spectra were recorded for the Fe(II)-containing samples using an Avantes (Avantes B.V., Apeldoorn, The Nederlands) AvaSpec-ULS2048CL-EVO spectrometer with an AvaLight-DHc light source and FDP-7UVIR200-2-VAR transmission dip probe. The titrations for the Fe(II)-containing samples were performed in a laboratory glove box (GP(Campus), Jacomex) (O2 content ≤ 1 ppm). The path length (ℓ) was 1 cm in most cases (the actual ℓ is always indicated in the legends of the figures). The concentrations of the ligands and complexes were between 40 and 200 µM, and 0.2 M KNO3 for the organometallic complexes or 0.1 M KCl for the Fe(II/III), Cu(II), and Zn(II) complexes were used to adjust the constant ionic strength. For HSA containing samples, complex concentrations were 50 µM, and 0.5, and 2 equiv. biomolecules were added for kinetic studies, respectively. For HSA model containing samples, complex concentrations were 50 µM, and the model concentrations were 0–150 µM and 0–500 µM, respectively, and the pH was 7.4 (PBS’). Spectra were always background and baseline corrected. The computer program HypSpec was used to obtain stability constants. Hydrolysis constants of the Fe(III), Fe(II), RuCym, and RhCp* species were included in the speciation models (see Table S4 with the data taken from References).

[2] = Complex formation kinetics (UV-vis, tandem cuvette); type: physicochemical; settings: 50 μM triaqua complex + 50 μM ligand
Procedure: The complex formation kinetics for the RhCp* and RuCym complexes was also assayed and compared at pH 1 and 4 (Figure S20). UV-vis spectral changes were followed in time after the triaqua complex [M(arene)(H2O)3]^2+ (50 μM) and the ligand (50 μM) were mixed in a tandem cuvette. The equilibrium was reached much faster in the case of the RhCp* complex (~5 min at pH 1, ~1 min at pH 4), as compared to the RuCym complex (~7 h at pH 1, ~45 min at pH 4).

[3] = type: physicochemical; settings: for logK' (H2O/Cl−): I = 0.2 M KNO3, 25.0 °C
Procedure: Spectral changes in the UV-vis spectra (Figure 8c) reveal two transformation processes. […] As chloride ions can efficiently coordinate to these types of half-sandwich organometallic complexes, the water/chloride co-ligand exchange process was also studied by UV-vis spectrophotometry (at pH 7.4 or 6.0), and logK' (H2O/Cl^-) exchange constants were determined (Table 3) based on the spectral changes upon increasing the chloride concentration in the solution. For the RhCp* complex, a higher constant, namely stronger chloride ion affinity, was obtained. […] An Agilent Cary 8454 diode array spectrophotometer (Santa Clara, CA, USA) was used to obtain UV-vis spectra in the wavelength range 200-1000 nm, while spectra were recorded for the Fe(II)-containing samples using an Avantes (Avantes B.V., Apeldoorn, The Nederlands) AvaSpec-ULS2048CL-EVO spectrometer with an AvaLight-DHc light source and […] transmission dip probe. The titrations for the Fe(II)-containing samples were performed in a laboratory glove box (GP(Campus), Jacomex) (O2 content ≤ 1 ppm). The path length (l) was 1 cm in most cases (the actual l is always indicated in the legends of the figures). […] Spectra were always background and baseline corrected. The computer program HypSpec was used to obtain stability constants. Hydrolysis constants of the Fe(III), Fe(II), RuCym, and RhCp* species were included in the speciation models (see Table S4 with the data taken from References).

HSA site I (Trp-214) = target: T1, HSA site I (Trp-214) (Homo sapiens, UniProt P02768); assay: HSA Trp-214 quenching by fluorometry (site I); type: binding; settings: 1 µM HSA, pH 7.4 (PBS'), 24 h incubation
T1 construct: purchased Sigma-Aldrich (Darmstadt, Germany) A8763
T1 sequence (P02768 25-609): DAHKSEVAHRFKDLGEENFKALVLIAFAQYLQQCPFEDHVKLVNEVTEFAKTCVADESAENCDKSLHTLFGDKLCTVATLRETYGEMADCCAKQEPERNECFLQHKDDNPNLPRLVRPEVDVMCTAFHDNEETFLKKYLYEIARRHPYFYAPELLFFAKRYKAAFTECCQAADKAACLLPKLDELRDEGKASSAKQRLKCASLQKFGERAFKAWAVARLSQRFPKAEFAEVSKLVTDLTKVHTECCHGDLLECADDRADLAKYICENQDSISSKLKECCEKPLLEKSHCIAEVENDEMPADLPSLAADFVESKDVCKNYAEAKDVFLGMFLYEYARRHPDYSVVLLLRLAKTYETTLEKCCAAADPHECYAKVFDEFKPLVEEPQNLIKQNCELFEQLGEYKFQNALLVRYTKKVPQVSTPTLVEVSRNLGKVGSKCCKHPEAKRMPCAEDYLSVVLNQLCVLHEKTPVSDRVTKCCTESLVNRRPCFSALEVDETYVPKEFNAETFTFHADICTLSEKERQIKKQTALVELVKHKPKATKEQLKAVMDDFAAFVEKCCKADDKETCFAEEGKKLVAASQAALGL
Procedure: (§1) Therefore, tryptophan (Trp-214) quenching and dansylglycine (DG) site marker displacement experiments were conducted by fluorometry to obtain information about the binding at sites I and II, respectively, using the same approach reported in our former paper. A representative spectral series is shown in Figure 9a for the Trp-214 quenching experiment, upon the addition of the RhCp*–HQNO2-L-Pro complex and the computed binding constants (logKQ’ and logKDG’) which can be found in Figure 9b, in addition to the corresponding data for the HQCl-L-Pro complexes.
(§2) A Fluoromax (Horiba Jobin Yvon, Longjumeau, France) spectrofluorometer was utilized for fluorescence measurements using a 1 cm × 1 cm quartz cuvette. Samples contained 1 µM HSA or DG and 1 µM HSA at pH 7.4 (PBS’), and the complex concentration was varied between 0 and 53 µM. The measurements were carried out on individual samples. Excitation wavelengths were 295 nm for Trp-214 quenching, and 335 nm for the DG displacement studies, respectively. The calculated conditional stability constants for HSA–complex species were obtained using the computer program HypSpec. Calculations always were based on data obtained from at least two independent measurements. Self-absorbance and inner filter effect had to be taken into account, and corrections were made as was described in our former works.

HSA site II = target: T2, HSA site II (Homo sapiens, UniProt P02768); assay: HSA dansylglycine (DG) site marker displacement by fluorometry (site II); type: binding; settings: 1 µM HSA, 1 µM DG, pH 7.4 (PBS')
T2 construct: purchased Sigma-Aldrich (Darmstadt, Germany) A8763
T2 sequence (P02768 25-609): as above
Procedure: as §1, §2

UV-vis spectral changes in aqueous solution ([1]; after 48 h)	logK' (H2O/Cl−) ([3]; pH 7.4)	quenching constant logKQ' (HSA site I (Trp-214))	DG marker displacement constant logKDG' (HSA site II)	Kd (HSA site I (Trp-214); read-out: quenching constant logKQ' (converted))	Kd (HSA site II; read-out: DG marker displacement constant logKDG' (converted))	SMILES	UV-vis spectral changes in aqueous solution ([1]; first 24 h)	time to reach equilibrium of complex formation ([2]; pH 1)	time to reach equilibrium of complex formation ([2]; pH 4)	pKa (1) [3]	pKa (2) [3]	logK' (H2O/Cl−) ([3]; pH 6.0)
–	–	–	–	–	–	Cc1ccc(C(C)C)cc1.O=C(O)[C@@H]1CCC[NH+]1Cc1cc([N+](=O)[O-])c2ccc[n+]3c2c1[O][Ru-]3[Cl].[Cl-] [RuCym-HQNO2-L-Pro, [RuCym(HQNO2-L-Pro)Cl]Cl]	no measurable changes	~ 7 h	~ 45 min	8.55 ± 0.03	10.21 ± 0.03	1.47 ± 0.01
minor spectral change	2.07 ± 0.03	5.1	5.6	–	–	CC1=C(C)[C](C)([Rh]([Cl])[O]c2c(C[NH+]3CCC[C@H]3C(=O)O)cc([N+](=O)[O-])c3cccnc23)C(C)=C1C.[Cl-] [RhCp*-HQNO2-L-Pro, [RhCp*(HQNO2-L-Pro)Cl]Cl]	no measurable changes	~ 5 min	~ 1 min	9.33 ± 0.03	10.34 ± 0.03	–
–	–	–	–	16.6 µM	33.9 µM	O=C(O)[C@@H]1CCCN1Cc1cc([N+](=O)[O-])c2cccnc2c1O [HQNO2-L-Pro, (2S)-1-((8-hydroxy-5-nitroquinolin-7-yl)methyl)pyrrolidin-1-ium-2-carboxylate]	–	–	–	–	–	–
